Source: US8574831B2, “Mutational profiles in HIV-1 reverse transcriptase correlated with phenotypic drug resistance” (Virco N.V., priority 2000, dated 2013)
Marks after values point to notes of the source that are not given here.

Columns and labels:
Format in all cases: cell-based
[1] = system: patient-derived recombinant HIV-1 variants (protease/RT from patient plasma); experiment: Recombinant virus assay (ANTIVIROGRAM), MT-4 cell viral cytopathic effect (CPE) protection assay, patient-derived recombinant viruses (Example 2); conditions: for level of resistance: samples with AZT and 3TC resistance mutations plus T69A/N or V175M
Experimental: FIG. 1: Nucleoside analogue susceptibility of MDIR patient-derived recombinant HIV variants. Recombinant viruses were produced from patient plasma samples as described in Example 2 and tested for susceptibility to (a) d4T, (b) ddC and (c) ddl. […] Error bars indicate standard errors. Note that the total number (n=310) is higher than the 302 MDR samples described because a small minority were 69D/N and 75M double mutants and are represented in both groups.
Viral RNA was extracted from 200 μL patient plasma using the QIAAMPV® Viral RNA Extraction Kit (Qiagen, Hilden, Germany), according to the manufacturers instructions. cDNA encompassing part of the pol gene was produced using EXPAND™ reverse transcriptase (Boehringer Mannheim) as described previously. See Hertogs K., et al., Antimicrob. Agents Chemother. 42:269-276 (1998). A 2.2 kb fragment encoding the protease and RT regions was then amplified by nested polymerase chain reaction (PCR) using PCR primers and conditions as described. Id. This genetic material was subsequently used in both phenotyping and genotyping experiments.
MT-4 cells (Harada S., et al, Science 229:563-566(1985).) were co-transfected with pol gene PCR fragments and the protease-RT deleted HIV-1 molecular clone, pGEM3deltaPRT, as described. See Hertogs K., et al., Antimicrob. Agents Chemother. 42:269-276 (1998). […] Phenotypic susceptibility to nucleoside analogues was determined using an MT-4 cell viral cytopathic effect (CPE) protection assay as described. Id. Fold resistance values were derived by dividing the mean IC50 for a patient's recombinant virus by the mean IC50 for wild-type control virus (strain HXB2-D). The PCR products obtained from patient plasma samples were genotyped by dideoxynucleotide-based sequence analysis. Samples were sequenced using the BIGDYE™ terminator kit (Applied Biosystems, Inc. (ABI)) and resolved on an ABI 377 DNA sequencer.
From this analysis, 302 samples were identified with four-fold or greater increases in IC50 (relative to a wild-type control virus) to at least four of these inhibitors. […]

[2] = system: HIV-1 HXB2 mutants with site-directed mutations in RT; experiment: Recombinant virus assay, drug susceptibility of mutants with site-directed RT mutations (Example 1); conditions: for Fold resistance: standard error in parentheses
Experimental: Plasma samples were obtained from HIV-1-infected individuals from routine clinical practice in Europe and the US and were shipped to the laboratory on dry ice and stored at −70° C. until analysis. Phenotypic analysis was performed using the recombinant virus assay. See Kellam, P., and B. A. Larder. Antimicrob. Agents Chemother. 38:23-30 (1994); Hertogs, K., et al., Antimicrob. Agents Chemother. 42:269-276 (1998); Briefly, protease (PR) and reverse transcriptase (RT) coding sequences were amplified from patient-derived viral RNA with HIV-1 specific primers. After homologous recombination of amplicons into a PR-RT deleted proviral clone, the resulting recombinant viruses were harvested, titrated and used for in vitro susceptibility testing to antiretroviral drugs.
For the modeling studies, mutations were generated in the RT gene of HXB2, a wild-type laboratory HIV-1 strain, using the QuikChange^J Site-Directed Mutagenesis Kit, […]^7, Stratagene Cloning systems, La Jolla, Calif., USA.

[3] = system: HIV-1 HXB2-D variants with site-directed RT mutations; experiment: MT-4 cell CPE protection assay, HIV-1 variants constructed by site-directed mutagenesis (Example 2); conditions: for susceptibility: 69S-[S-S] insert plus AZT resistance mutations (210W and 215Y); for resistance: T69A or V75M in a background of AZT mutations
Experimental: Mutations in the RT coding region were created by site-directed mutagenesis of a wild-type HXB2-D EcoRl-Pstl restriction enzyme fragment, encompassing the HIV-1 pol gene and cloned into pGEM3 (Promega). Single and multiple nucleotide changes were introduced into RT using the EXSITE™ mutagenesis kit (Strategene). All mutant clones were verified by DNA sequence analysis of the entire RT. PCR fragments were prepared from the mutated clones and the altered RT coding regions were transferred into the HIV-1 HXB2-D genetic background by homologous recombination as described above. The susceptibility of these recombinant viruses to nucleoside analogues was subsequently determined by the MT-4 cell CPE protection assay. Id.

In the case of `Nc1ccn([C@@H]2CS[C@H](CO)O2)c(=O)n1` [3TC, lamivudine], the “mean fold increase in IC50” value ([1]; all four MDR groups (151 cluster, 69D/N, 75M, codon 69 insertions)) is reported as over 30 fold, the Fold resistance ([2]; SDM05: 41L, 210W, 211K, 214F, 215Y) is reported as 4 (0.3)^c fold and the Fold resistance ([2]; SDM18: 41L, 67N, 210W, 211K, 214F, 215Y) is reported as 2 (0.6) fold. The Fold resistance ([2]; SDM19: 41L, 67N, 69D, 210W, 211K, 214F, 215Y) was 4 (0.7) fold, the Fold resistance ([2]; SDM22: 184V, 41L, 210W, 211K, 214F, 215Y) was 78 (16.3) fold and the Fold resistance ([2]; SDM23: 184V) was 82 (13.6) fold. For the same compound, the Fold resistance ([2]; SDM24: 184V, 69S-S-S, 210W, 211K, 214D, 215Y) was 85 (14.2) fold, the Fold resistance ([2]; SDM26: 184V, 41L, 67N, 210W, 211K, 214F, 215Y) was 72 (13.8) fold and the Fold resistance ([2]; SDM28: 44D) was 1 (0.1) fold. For the same compound, the Fold resistance ([2]; SDM29: 1181) was 2 (0.2) fold, the Fold resistance ([2]; SDM30: 44D, 1181) was 3 (0.3) fold and the Fold resistance ([2]; SDM31: 44D, 41L, 67N, 210W, 211K, 214F, 215Y) was 22 (2.5) fold. The Fold resistance ([2]; SDM32: 44D, 41L, 67N, 69D, 210W, 211K, 214F, 215Y) was 8 (2.2) fold, the Fold resistance ([2]; SDM33: 1181, 41L, 67N, 210W, 211K, 214F, 215Y) was 7 (1.0) fold and the Fold resistance ([2]; SDM34: 1181, 41L, 67N, 69D, 210W, 211K, 214F, 215Y) was 32 (3.9) fold. For the same compound, the Fold resistance ([2]; SDM35: 44D, 1181, 41L, 67N, 210W, 211K, 214F, 215Y) was 14 (1.4) fold, the Fold resistance ([2]; SDM36: 44D, 1181, 41L, 67N, 69D, 210W, 211K, 214D, 215Y) was 15 (2.1) fold and the Fold resistance ([2]; SDM38: 184V, 44D, 1181, 41L, 67N, 210W, 211K, 214F, 215Y) was 82 (13.5) fold. For the same compound, the Fold resistance ([2]; SDM39: 184V, 44D, 1181, 41L, 67N, 69D, 210W, 211K, 214F, 215Y) was 84 (13.9) fold and the high resistance ([2]; caused by mutation 184V) was over 62 fold.
With `Cc1cn([C@H]2C=C[C@@H](CO)O2)c(=O)[nH]c1=O` [d4T, stavudine] the “level of resistance” value [1] was “only modest levels of resistance”, the “susceptibility” value [3] was “decreased susceptibility” and the “resistance” value [3] was “little or no resistance”.
With `Nc1ccn([C@H]2CC[C@@H](CO)O2)c(=O)n1` [ddC, zalcitabine] the “level of resistance” value [1] was “only modest levels of resistance”, the “susceptibility” value [3] was “decreased susceptibility” and the “resistance” value [3] was “little or no resistance”.
